Earlier results as cited in US4235881A, “Method for producing high potency factor VIII” (priority 1978, dated 1980).

Test system: Factor VIII
Conditions: hemophiliacs having diminished ability to synthesize Factor VIII

1-Deamino-8-D-Arginine Vasopressin [dDAVP]
ability to synthesize Factor VIII: increased to normal levels
